Results: ChEMBL document CHEMBL1201862, “PubChem BioAssay data set” (2004)
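All cell lines were grown in 96-well plates and treated with compound for 48 hours. GI50 = concentration required for 50% inhibition of growth.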 The source made the active and inactive calls. Cut-off read from the data, not from the text of the source: active = GI50 up to about 1.1 µM and inactive = higher.

Experiments:
Test in all cases: DTP human tumour cell line panel, 48 h
RPMI-8226 = system: RPMI-8226
HOP-92 = system: HOP-92
UO-31 = system: UO-31
786-0 = system: 786-0
NCI-H226 = system: NCI-H226
MDA-N = system: MDA-N
OVCAR-5 = system: OVCAR-5
SF-268 = system: SF-268
HOP-62 = system: HOP-62
IGROV-1 = system: IGROV-1
SN12C = system: SN12C
T47D = system: T47D
TK-10 = system: TK-10
LOX IMVI = system: LOX IMVI
SK-MEL-2 = system: SK-MEL-2
HL-60 = system: HL-60
BT-549 = system: BT-549
OVCAR-4 = system: OVCAR-4
NCI-H460 = system: NCI-H460
MDA-MB-231 = system: MDA-MB-231
MDA-MB-435 = system: MDA-MB-435
DU-145 = system: DU-145
K562 = system: K562
SW-620 = system: SW-620
HCT-15 = system: HCT-15
MOLT-4 = system: MOLT-4
HCC 2998 = system: HCC 2998
SF-295 = system: SF-295
SK-OV-3 = system: SK-OV-3
SF-539 = system: SF-539
SR = system: SR
CAKI-1 = system: CAKI-1
CCRF-CEM = system: CCRF-CEM
HCT-116 = system: HCT-116
SK-MEL-5 = system: SK-MEL-5
M14 = system: M14
OVCAR-3 = system: OVCAR-3
UACC-257 = system: UACC-257
HT-29 = system: HT-29
OVCAR-8 = system: OVCAR-8
A498 = system: A498
A549 = system: A549
Malme-3M = system: Malme-3M
SNB-19 = system: SNB-19
SK-MEL-28 = system: SK-MEL-28
RXF 393 = system: RXF 393
MCF7 = system: MCF7
KM12 = system: KM12
ACHN = system: ACHN
PC-3 = system: PC-3
COLO 205 = system: COLO 205
U-251 = system: U-251
NCI/ADR-RES = system: NCI/ADR-RES
NCI-H23 = system: NCI-H23
NCI-H522 = system: NCI-H522
SNB-75 = system: SNB-75
EKVX = system: EKVX
Hs-578T = system: Hs-578T

CC(=O)O[C@H]1CCC2[C@@H]3CCC4Nc5oncc5C[C@]4(C)C3CC[C@@]21C (stereo not given in full)
GI50 (RPMI-8226): > 10 µM (inactive) | GI50 (HOP-92): > 10 µM (inactive) | GI50 (UO-31): > 10 µM (inactive) | GI50 (786-0): 6.5 µM (inactive) | GI50 (NCI-H226): > 10 µM (inactive) | GI50 (MDA-N): > 10 µM (inactive) | GI50 (OVCAR-5): > 10 µM (inactive) | GI50 (SF-268): > 10 µM (inactive) | GI50 (HOP-62): > 10 µM (inactive) | GI50 (IGROV-1): > 10 µM (inactive) | GI50 (SN12C): > 10 µM (inactive) | GI50 (T47D): > 10 µM (inactive) | GI50 (TK-10): > 10 µM (inactive) | GI50 (LOX IMVI): > 10 µM (inactive) | GI50 (SK-MEL-2): > 10 µM (inactive) | GI50 (HL-60): 1.98 µM (inactive) | GI50 (BT-549): > 10 µM (inactive) | GI50 (OVCAR-4): > 10 µM (inactive) | GI50 (NCI-H460): > 10 µM (inactive) | GI50 (MDA-MB-231): > 10 µM (inactive) | GI50 (MDA-MB-435): > 10 µM (inactive) | GI50 (DU-145): > 10 µM (inactive) | GI50 (K562): > 10 µM (inactive) | GI50 (SW-620): > 10 µM (inactive) | GI50 (HCT-15): > 10 µM | GI50 (MOLT-4): 3.92 µM (inactive) | GI50 (HCC 2998): > 10 µM (inactive) | GI50 (SF-295): > 10 µM (inactive) | GI50 (SK-OV-3): > 10 µM (inactive) | GI50 (SF-539): 3.94 µM (inactive) | GI50 (SR): > 10 µM (inactive) | GI50 (CAKI-1): > 10 µM (inactive) | GI50 (CCRF-CEM): 3.67 µM (inactive) | GI50 (HCT-116): 6.49 µM (inactive) | GI50 (SK-MEL-5): > 10 µM (inactive) | GI50 (M14): > 10 µM (inactive) | GI50 (OVCAR-3): 2.55 µM (inactive) | GI50 (UACC-257): > 10 µM (inactive) | GI50 (HT-29): > 10 µM (inactive) | GI50 (OVCAR-8): > 10 µM (inactive) | GI50 (A498): 4.62 µM (inactive) | GI50 (A549): > 10 µM (inactive) | GI50 (Malme-3M): > 10 µM (inactive) | GI50 (SNB-19): > 10 µM (inactive) | GI50 (SK-MEL-28): > 10 µM (inactive) | GI50 (RXF 393): > 10 µM (inactive) | GI50 (MCF7): 8.55 µM (inactive) | GI50 (KM12): > 10 µM (inactive) | GI50 (ACHN): > 10 µM (inactive) | GI50 (PC-3): > 10 µM (inactive) | GI50 (COLO 205): > 10 µM (inactive) | GI50 (U-251): > 10 µM (inactive) | GI50 (NCI/ADR-RES): > 10 µM (inactive) | GI50 (NCI-H23): > 10 µM (inactive)

Cc1c(-c2ccc(O)c(O)c2)oc(=O)c2c(O)cccc12
GI50 (RPMI-8226): 13.7 µM (inactive) | GI50 (HOP-92): 16.3 µM (inactive) | GI50 (UO-31): 11.1 µM (inactive) | GI50 (786-0): 9.73 µM (inactive) | GI50 (OVCAR-5): 14.8 µM (inactive) | GI50 (NCI-H522): 2.95 µM (inactive) | GI50 (SF-268): 9.1 µM (inactive) | GI50 (HOP-62): 10.7 µM (inactive) | GI50 (IGROV-1): 5.82 µM (inactive) | GI50 (SN12C): 5.27 µM (inactive) | GI50 (T47D): 1.55 µM (inactive) | GI50 (TK-10): 12.2 µM (inactive) | GI50 (SK-MEL-2): 13.1 µM (inactive) | GI50 (HL-60): 3.88 µM (inactive) | GI50 (BT-549): 6.24 µM (inactive) | GI50 (SNB-75): 13.3 µM (inactive) | GI50 (OVCAR-4): 11.7 µM (inactive) | GI50 (NCI-H460): 11.6 µM (inactive) | GI50 (MDA-MB-435): 3.17 µM (inactive) | GI50 (DU-145): 14.4 µM (inactive) | GI50 (K562): 4.85 µM (inactive) | GI50 (SW-620): 12.2 µM (inactive) | GI50 (HCT-15): 3.96 µM | GI50 (MOLT-4): 3.02 µM (inactive) | GI50 (HCC 2998): 10.4 µM (inactive) | GI50 (SF-295): 17.7 µM (inactive) | GI50 (SK-OV-3): 6.04 µM (inactive) | GI50 (SF-539): 12.5 µM (inactive) | GI50 (EKVX): 8.87 µM (inactive) | GI50 (CAKI-1): 7.35 µM (inactive) | GI50 (CCRF-CEM): 3.08 µM (inactive) | GI50 (HCT-116): 6.56 µM (inactive) | GI50 (SK-MEL-5): 10.4 µM (inactive) | GI50 (M14): 8.05 µM (inactive) | GI50 (OVCAR-3): 11.6 µM (inactive) | GI50 (UACC-257): 15.7 µM (inactive) | GI50 (Hs-578T): 3.03 µM (inactive) | GI50 (OVCAR-8): 53.3 µM (inactive) | GI50 (A498): 15 µM (inactive) | GI50 (A549): 7.93 µM (inactive) | GI50 (Malme-3M): 13.3 µM (inactive) | GI50 (SNB-19): 6.3 µM (inactive) | GI50 (RXF 393): 12.4 µM (inactive) | GI50 (MCF7): 6.68 µM (inactive) | GI50 (KM12): 10.1 µM (inactive) | GI50 (ACHN): 20 µM (inactive) | GI50 (PC-3): 12.9 µM (inactive) | GI50 (COLO 205): 9.71 µM (inactive) | GI50 (U-251): 12.1 µM (inactive) | GI50 (NCI/ADR-RES): 10.5 µM (inactive) | GI50 (NCI-H23): 10.3 µM (inactive)
